Test results reported in patent US20020094988A1, “Method of treating erectile dysfunction” (priority 1999, published 2002).
Where a name gives a salt, the structure may show the parent alone.

System: person with erectile dysfunction
Test: Erectile strength rated on a unilinear scale of 1 to 10 in treated patients
Assay type: in vivo, human
Description: Subsequent discontinuation of Pavabid and Trental and placed on Viagra alone.

CCCc1nn(C)c2c(=O)[nH]c(-c3cc(S(=O)(=O)N4CCN(C)CC4)ccc3OCC)nc12 [Viagra, sildenafil citrate]
erectile strength (Example 1: person, rated 3 before treatment): 7
erectile strength (Example 2: person, rated 2 prior to treatment): 6
